Assay results from ChEMBL document CHEMBL1147953, “9-Nitroanthracene derivative as a precursor of anthraquinone for photodynamic therapy” (Bioorg Med Chem, 2007).
Active and inactive are the calls of the source. The rule behind the calls is not given here.

Key:
Escherichia coli [1] = assay: Induction of strand cleavage in pBR322 DNA in absence of irradiation assessed as conversion of supercoiled DNA to […] circular form at 200 uM
Escherichia coli [2] = assay: Induction of strand cleavage in pBR322 DNA after irradiation with 5 J/cm^2 assessed as conversion of supercoiled DNA to […] circular form at 200 uM

Activity (Escherichia coli [1])	Activity (Escherichia coli [2])	Structure (SMILES)
inactive	Active	CN(C)CCCC(=O)Nc1ccc2cc3ccccc3cc2c1[N+](=O)[O-]
inactive	Active	CN(C)CCCC(=O)Nc1ccc2cc3ccccc3c([N+](=O)[O-])c2c1
